Experimental data as given in US7358267B2, “Bis-aryl thiazole derivatives” (Amgen Inc., priority 2001, dated 2008).

What was measured:
RXRα = molecular target: T1, RXRα (Homo sapiens, UniProt P19793); test: RXRα induction in HEK 293 cells (transient transfection, luciferase reporter); type: cell-based
T1 construct: expressed in transfected cells; host or cells: HEK 293 cells
T1 sequence (P19793 1-462): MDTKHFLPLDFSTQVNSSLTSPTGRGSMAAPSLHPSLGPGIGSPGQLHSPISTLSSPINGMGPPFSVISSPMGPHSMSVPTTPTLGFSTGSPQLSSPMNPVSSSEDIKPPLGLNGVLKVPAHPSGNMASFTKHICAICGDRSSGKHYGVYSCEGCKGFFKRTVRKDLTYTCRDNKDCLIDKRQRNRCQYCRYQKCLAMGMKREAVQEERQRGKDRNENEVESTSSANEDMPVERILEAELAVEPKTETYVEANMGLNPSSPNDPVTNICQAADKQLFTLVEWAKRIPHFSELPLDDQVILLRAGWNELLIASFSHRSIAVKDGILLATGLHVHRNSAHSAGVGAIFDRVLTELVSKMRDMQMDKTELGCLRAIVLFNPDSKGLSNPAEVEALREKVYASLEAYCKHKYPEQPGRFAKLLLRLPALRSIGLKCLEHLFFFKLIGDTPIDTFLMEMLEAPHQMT
Description: Table 2 provides QPCR data (ABI 7700 Sequence Detection System) for exemplary compounds of formula I evaluated for RXR induction in HEK 293 cells, following a general protocol, briefly described below. See Naeger et al. (1999) J. Biol. Chem. 274:1875-1878 for a related cell-based assay.
DNA constructs containing a luciferase reporter plasmid and another plasmid which contained an activation domain (e.g., RXRα) were transiently transfected into HEK 293 cells. The cells were treated with the compounds and luciferase activity was measured using a luminometer. Fold induction was determined by comparing the luciferase activity of treated cells to the activity of untreated cells.

UCP3 = UCP3 RNA induction in rat L6 cells (QPCR); type: cell-based; parameters: key to UCP3 RNA induction, Induction at 10 μM: ++ denotes greater than 10-fold induction; + denotes 10-fold or less induction; — denotes no induction
Description: Table 1 provides QPCR data (ABI 7700 Sequence Detection System) for exemplary compounds of formula I evaluated for UCP3 RNA induction in L6 cells from rats. The assay is described in Example 14.4, below.
Rat UCP3 (L6 cells) QPCR Protocol
1. (Day1) Plate 300,000 L6 cells per well (24 well plate) in Minimum Essential Medium-Alpha Medium with 2% FBS and Antibiotic/Antimycotic Solution added. Incubate for 2 days and change to fresh medium (Day3). Incubate 1 more day.
2. (Day 4) Add compound at desired concentration. Incubate for 18-20 h. 2 wells per compound. 4-wells of DMSO controls per plate.
3. (Day 5) Prepare RNA from cells: • (1) Aspirate media and lyse cells directly on plate by adding 500 μL of Trizol Reagent (Gibco BRL) to each well and passing the lysate several times through a pipette. Transfer lysate to eppendorf tubes (combining the lysate from identical compound treatments). • (2) Add 200 μL of chloroform to the 1 mL of lysate. Vortex to mix and incubate at room temp. for 2-3 min. Spin samples in a microfuge at 12,000 rpm for 15 min. at 4° C. • (3) Transfer the aqueous phase to a fresh tube. Precipitate the RNA from the aqueous phase by adding 500 μL of isopropanol and mixing well. Incubate at −20° C. for at least 15 min. Pellet the RNA by spinning at 12,000 rpm for 10 min. at 4° C. • (4) Remove the supernatant and wash the RNA pellet with 500 μL of 75% ethanol. Spin at 10,000 rpm for 5 min. at 4° C. • (5) Remove the supernatant and allow pellet to air dry briefly. Dissolve RNA in 15 μL of RNase-free water. Store at −80° C. Electrophorese some RNA to check quality.
4. QPCR (50 μL reactions in 96 well MicroAmp Optical Plate): TaqMan Gold RT-PCR Reagents (PE catalog #N808-0232): OD RNA and dilute to 5 ng/μL in RNase-free water. All samples run in duplicate with UCP3 and m18S probe/primers
Add 40 μL of Reaction Mix to 10 μL of diluted RNA (50 ng total) on QPCR plate PCR Cycling Parameters • 48° C. 30 min. • 95° C. 10 min. • 40 cycles: 95° C. 15 sec. • 58° C. 1.5 min. QPCR Primers/Probes

RXRα RNA induction at 1 μM (RXRα) | RXRα RNA induction at 3 μM (RXRα) | RXRα RNA induction at 10 μM (RXRα) | melting point | SMILES | UCP3 RNA induction, Induction at 10 μM (UCP3) | fold induction at 10 µM (UCP3)
 |  |  |  | O=C(O)c1cnn(-c2nc(-c3cccc([N+](=O)[O-])c3)cs2)c1C(F)(F)F [Compound 12, 1-[4-(3-Nitrophenyl)thiazol-2-yl]-5-trifluoromethylpyrazole-4-carboxylic acid] | — | 
+ (+ denotes 5-fold or less induction) | + (+ denotes 5-fold or less induction) | + (+ denotes 5-fold or less induction) | 273.1 to 274.3 °C | Cc1c(C(=O)O)cnn1-c1nc(-c2ccc3ccccc3c2)cs1 [Compound 9, 1-[4-(2-Naphthyl)thiazol-2-yl]-5-methylpyrazole-4-carboxylic acid] | — | 
 |  |  | 138 to 138.5 °C | CCOC(=O)c1cnn(-c2nc(-c3cccc(C(F)(F)F)c3)cs2)c1C [Compound 11, Ethyl 1-[4-(3-(trifluoromethyl)phenyl)thiazol-2-yl]-5-methylpyrazole-4-carboxylate] |  | ≤ 10
+ (+ denotes 5-fold or less induction) | + (+ denotes 5-fold or less induction) | + (+ denotes 5-fold or less induction) |  | Cc1c(C(=O)O)cnn1-c1nc(-c2ccc(-c3ccccc3)cc2)cs1 [Compound 19] |  | 
 |  |  | 229.1 to 229.6 °C | O=C(O)c1cnn(-c2nc(-c3cccc(C(F)(F)F)c3)cs2)c1 [Compound 6, 1-[4-(3-(Trifluoromethyl)phenyl)thiazol-2-yl]pyrazole-4-carboxylic acid] |  | > 10
+ (+ denotes 5-fold or less induction) | + (+ denotes 5-fold or less induction) | + (+ denotes 5-fold or less induction) | 278 to 278.6 °C | Cc1c(C(=O)O)cnn1-c1nc(-c2ccc(Cl)c(Cl)c2)cs1 [Compound 3, 1-[4-(3,4-Dichlorophenyl)thiazol-2-yl]-5-methylpyrazole-4-carboxylic acid] |  | > 10
 |  |  | 258 to 258.3 °C | Cc1c(C(=O)O)cnn1-c1nc(-c2cccc(Cl)c2)cs1 [Compound 4, 1-[4-(3-Chlorophenyl)thiazol-2-yl]-5-methylpyrazole-4-carboxylic acid] |  | > 10
+ (+ denotes 5-fold or less induction) | + (+ denotes 5-fold or less induction) | + (+ denotes 5-fold or less induction) |  | Cc1c(C(=O)O)cnn1-c1nc(-c2ccccc2)cs1 [Compound 17] |  | 
+ (+ denotes 5-fold or less induction) | + (+ denotes 5-fold or less induction) | + (+ denotes 5-fold or less induction) |  | CCOC(=O)c1cnn(-c2nc(-c3cccc([N+](=O)[O-])c3)cs2)c1C [Compound 8, Ethyl 1-[4-(3-nitrophenyl)thiazol-2-yl]-5-methylpyrazole-4-carboxylate] | — | 
 |  |  |  | Cc1c(C(=O)NCCC(=O)O)cnn1-c1nc(-c2cccc(C(F)(F)F)c2)cs1 [Compound 20] |  | ≤ 10
+ (+ denotes 5-fold or less induction) | + (+ denotes 5-fold or less induction) | + (+ denotes 5-fold or less induction) |  | O=C(O)c1cnn(-c2nc(-c3cccc(C(F)(F)F)c3)cs2)c1C(=O)O [Compound 16] |  | 
+ (+ denotes 5-fold or less induction) | + (+ denotes 5-fold or less induction) | + (+ denotes 5-fold or less induction) | 204 to 204.7 °C | O=C(O)c1cnn(-c2nc(-c3cc(C(F)(F)F)cc(C(F)(F)F)c3)cs2)c1C(F)(F)F [Compound 13, 1-[4-(3,5-Bis(trifluoromethyl)phenyl)thiazol-2-yl]-5-(trifluoromethyl)pyrazole-4-carboxylic acid] |  | ≤ 10
+ (+ denotes 5-fold or less induction) | + (+ denotes 5-fold or less induction) | + (+ denotes 5-fold or less induction) | 273 to 274 °C | Cc1c(C(=O)O)cnn1-c1nc(-c2ccc(C(F)(F)F)cc2)cs1 [Compound 2, 1-[4-(4-(Trifluoromethyl)phenyl)thiazol-2-yl]-5-methylpyrazole-4-carboxylic acid] |  | > 10
+ (+ denotes 5-fold or less induction) | + (+ denotes 5-fold or less induction) | + (+ denotes 5-fold or less induction) | 215.5 to 216.5 °C | Cc1c(C(=O)O)cnn1-c1nc(-c2ccccc2C(F)(F)F)cs1 [Compound 7, 1-[4-(2-(Trifluoromethyl)phenyl)thiazol-2-yl]-5-methylpyrazole-4-carboxylic acid] |  | > 10
+ (+ denotes 5-fold or less induction) | + (+ denotes 5-fold or less induction) | + (+ denotes 5-fold or less induction) |  | O=C(O)c1cnn(-c2nc(-c3cccc(C(F)(F)F)c3)cs2)c1C(F)(F)F [Compound 5, 1-[4-(3-(Trifluoromethyl)phenyl)thiazol-2-yl]-5-trifluoromethylpyrazole-4-carboxylic acid] |  | > 10

SMILES | RXRα RNA induction at 1 μM (RXRα) | RXRα RNA induction at 3 μM (RXRα) | RXRα RNA induction at 10 μM (RXRα) | melting point | UCP3 RNA induction, Induction at 10 μM (UCP3) | fold induction at 10 µM (UCP3)
Cc1c(C(=O)O)cnn1-c1nc(-c2ccc(Cl)cc2)cs1 [Compound 18] | + (+ denotes 5-fold or less induction) | ++ (++ denotes greater than 5-fold induction) | + (+ denotes 5-fold or less induction) |  |  | 
CCc1c(C(=O)O)cnn1-c1nc(-c2cccc(C(F)(F)F)c2)cs1 [Compound 15] | + (+ denotes 5-fold or less induction) | ++ (++ denotes greater than 5-fold induction) | + (+ denotes 5-fold or less induction) |  |  | 
COc1cccc(-c2csc(-n3ncc(C(=O)O)c3C)n2)c1 [Compound 14] | ++ (++ denotes greater than 5-fold induction) | ++ (++ denotes greater than 5-fold induction) | ++ (++ denotes greater than 5-fold induction) |  |  | 
Cc1c(C(=O)O)cnn1-c1nc(-c2cc(C(F)(F)F)cc(C(F)(F)F)c2)cs1 [Compound 10, 1-[4-(3,5-Bis(trifluoromethyl)phenyl)thiazol-2-yl]-5-methylpyrazole-4-carboxylic acid] | + (+ denotes 5-fold or less induction) | ++ (++ denotes greater than 5-fold induction) | + (+ denotes 5-fold or less induction) | 260.9 to 261.4 °C |  | ≤ 10
